Measured values published in patent US12427168B2, “Extracellular vesicle and use thereof in skin products” (EV CELL BIOTECH (GUANGZHOU) CO., LTD., priority 2020, dated 2025).

Assays:
[1] = tested on: skin mesenchymal stem cells; assay: Uptake of IEVs by skin mesenchymal stem cells, cell smear; format: cell-based; details: FIG. 13D
Wnt signaling pathways = assay: Skin excretion of IEVs under Wnt agonist or inhibitor (Western Blot, immunofluorescence); format: in vivo; details: Licl 10 mg/kg or XAV939 1 mg/kg intraperitoneally for 3 days, FIGS. 13A-B
mice [2] = assay: Wound healing of 1 cm×1 cm full-thickness wound; format: in vivo; details: for effect on promotion of wound healing by IEVs: with IEVs, FIG. 15B
Description: A 1 cm×1 cm full-thickness wound was made in mice, and the effect of systemic injections of MSCs and IEVs on wound healing was examined.

mice [3] = assay: Hair regrowth with IEVs alone or combined with anti-aging substances; format: in vivo; details: combined with IEVs, FIG. 12
Description: After systemic injection of PKH26-IEV in C57 mice, rapamycin (5 mg/kg), metformin (100 mg/kg), dadatinib (5 mg/kg) and resveratrol (10 mg/kg) were intraperitoneally injected for 7 days, respectively.

active-β-catenin = assay: Active-β-catenin intensity in the skin, immunofluorescence; format: in vivo; details: with IEVs, FIG. 13E

| SMILES | effect on uptake of IEVs by skin mesenchymal stem cells [1] | effect on skin excretion of IEVs (Wnt signaling pathways) | IEVs accumulation in the wound site (mice [2]; immunofluorescence, FIG. 15C) | effect on promotion of wound healing by IEVs (mice [2]) | effect of the combination on hair regrowth promotion by IEVs (mice [3]) | effect on IEV-stimulated activation of Wnt signaling pathways in the skin (active-β-catenin) |
| --- | --- | --- | --- | --- | --- | --- |
| [Cl-].[Li+] [Licl] | affected | significant increase in skin excretion of IEVs | significantly increased IEVs accumulation in the wound site | accelerated the promotion of wound healing by IEVs | – | – |
| CN(C)C(=N)N=C(N)N [metformin] | – | – | – | – | promoted the promotion effects of hair regrowth by IEVs | – |
| Oc1ccc(C=Cc2cc(O)cc(O)c2)cc1 [resveratrol] | – | – | – | – | promoted the promotion effects of hair regrowth by IEVs | – |
| Oc1nc(-c2ccc(C(F)(F)F)cc2)nc2c1CSCC2 [XAV939] | affected | – | – | significantly attenuated the promotion of wound healing by IEVs | – | attenuated this activation process |
